{"source": "paper PMC6548402", "about": "“Increasing molar activity by HPLC purification improves ^68Ga-DOTA-NAPamide tumor accumulation in a B16/F1 melanoma xenograft model” (PLoS ONE, 2019)", "key": {"[1]": {"target": "T1, murine MC1R expressed in the B16/F1 cells (Mus musculus, UniProt Q01727)", "T1 construct": "endogenous in cells; host or cells: B16/F1 mouse melanoma cells (live, whole cells)", "T1 sequence (Q01727 whole entry)": "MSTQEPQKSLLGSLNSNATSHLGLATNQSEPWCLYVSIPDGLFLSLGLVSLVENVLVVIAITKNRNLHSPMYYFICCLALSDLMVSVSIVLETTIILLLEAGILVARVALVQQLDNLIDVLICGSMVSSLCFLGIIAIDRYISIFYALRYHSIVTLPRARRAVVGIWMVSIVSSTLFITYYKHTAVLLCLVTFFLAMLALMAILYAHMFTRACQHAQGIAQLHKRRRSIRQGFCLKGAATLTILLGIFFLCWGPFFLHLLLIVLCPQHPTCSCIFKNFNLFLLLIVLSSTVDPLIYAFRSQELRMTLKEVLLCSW", "test": "Competitive binding (ligand displacement) with 125I-NDP-MSH on whole B16/F1 cells", "settings": "displacement of 125I-NDP-MSH, n = 3", "description": "[Nle^4,d-Phe^7]-melanocyte-stimulating hormone (NDP-MSH) was iodinated with Na^125I by the chloramine-T method and it was purified from unlabeled peptide by HPLC as described before. Saturation and competitive binding studies were performed with live cells. 40.000 B16/F1 cells were seeded per well into a 96-well flat bottom cell culture plate. For competitive binding, medium was removed and 50 μL of binding buffer (50 mM 4-(2-hydroxyethyl)-1-piperazineethanesulfonic acid (HEPES) pH 7.4, 5 mM MgCl2, 1 mM CaCl2, 0.5% BSA, protease inhibitor cocktail cOmplete [Roche Applied Science, Penzberg, Germany]) with increasing concentrations of non-radioactive peptide was added to the cells. Additionally, 50 μL binding buffer with 100,000 counts per minute (cpm) of ^125I-NDP-MSH was added. After 30 minutes of incubation at 37°C, cells were washed 4 times with cold washing buffer (50 mM Tris-HCl pH 7.4, 125 mM NaCl, 0.05% BSA). 100 μL 1 N NaOH was added to lyse cells. Lysates were transferred into vials and measured using a gamma counter (Wallac 1470 Wizard, PerkinElmer, Waltham, MA, USA). The saturation assay was performed by adding 100 μL of binding buffer with increasing amounts of ^125I-NDP-MSH to the cells in the presence or absence of 1 μM of unlabeled NDP-MSH."}, "tumor": {"tested_on": "tumor", "settings": "4 h p.i., 111In and 67Ga labels; cited from earlier work"}, "[2]": {"test": "In vivo PET/MRI imaging of mice bearing B16/F1 tumors (SUV by VOI)", "set-up": "species or system mouse", "settings": "NMRI-Foxn1nu/Foxn1nu, mouse, B16/F1 tumor, iv, total radioactivity; for SUV: dynamic PET; for SUV at 1 h: 1 h post injection, n = 1", "description": "(§1) B16/F1 cells (3x10^6) in a volume of 150 μL 0.9% NaCl were inoculated subcutaneously on the right shoulder of NMRI-Foxn1^nu /Foxn1^nu mice (Janvier Labs, Saint-Berthevin, France). After 1–2 weeks of growth, tumor bearing mice were injected with approximately 15 MBq of ^68Ga-DOTA-NAPamide in a volume of approximately 150 μL 0.9% NaCl into a lateral tail vein via a catheter. Positron emission tomography (PET) / magnetic resonance imaging (MRI) (1 Tesla nanoScan PET/MRI Mediso, Budapest, Hungary) was performed at Berlin Experimental Radionuclide Imaging Center (BERIC), Charité –Universitätsmedizin Berlin. Anatomic MRI scans were acquired using a T2-weighted 2D fast spin echo sequence (T2 FSE 2D) with the following parameters: coronal sequentially, matrix 256x256x20 with dimensions 0.36x0.36x1.5mm^3, TR: 8695 ms, TE: 103 ms, and a flip angle of 180°. PET scans were performed for 90 min starting directly before intravenous injection of tracer. PET images were reconstructed from the raw data with the following image sequence: 6 x 10 s, 6 x 30 s, 5 x 60 s and 8 X 600 s. The tracer standardized uptake value (SUV) in the tumor tissue was determined by manual contouring of a volume of interest (VOI) of the PET images using PMOD 3.610 (PMOD Technologies, Zürich, Switzerland)."}, "B16/F1 tumors": {"tested_on": "B16/F1 tumors", "test": "In vivo PET/MRI imaging of mice bearing B16/F1 tumors (SUV by VOI)", "set-up": "species or system mouse", "settings": "dynamic PET, all tested conditions, after injection", "description": "as §1"}, "[3]": {"test": "In vivo biodistribution in B16/F1 xenograft-bearing nude mice", "set-up": "species or system mouse", "settings": "NMRI-Foxn1nu/Foxn1nu, mouse, iv, 5 MBq, total radioactivity; for tissue uptake at 1 h: 1 h after i.v. injection; for tissue to tissue ratio at 1 h: Fig 3", "description": "(§2) B16/F1 cells (3x10^6) in a volume of 150 μL 0.9% NaCl were inoculated subcutaneously on the right shoulder of NMRI-Foxn1^nu /Foxn1^nu mice (Janvier Labs, Saint-Berthevin, France). After 1–2 weeks of growth, tumor bearing mice were injected with approximately 5 MBq of ^68Ga-DOTA-NAPamide in a volume of 100 μL 0.9% NaCl into a lateral tail vein via a catheter. Mice were sacrificed and dissected 1 h after injection. The B16F1 tumor, blood, stomach, pancreas, small intestine, colon, liver, spleen, kidney, heart, lung, muscle and femur samples were weighed and uptake of radioactivity was measured by a gamma counter (Wallac 1470 Wizard, Perkin Elmer, Waltham, MA, USA). To determine the effect of unlabeled ligand on tumor uptake, either 50 pmol or 500 pmol non-labeled DOTA-NAPamide were co-injected."}, "[4]": {"tested_on": "MC1R-expressing B16/F1 tumor xenografts", "test": "In vivo biodistribution in B16/F1 xenograft-bearing nude mice", "set-up": "species or system mouse", "description": "as §2"}, "[5]": {"settings": "B16/F1 cells, Fig 1B (impact of gallium chelation)"}}, "note": "pKi: −log10 of the molar value. Like-named read-outs stand apart in the source and are kept apart here.", "data": [{"compound": "CCCC[C@H](NC(C)=O)C(=O)N[C@@H](CC(=O)O)C(=O)N[C@@H](Cc1c[nH]cn1)C(=O)N[C@H](Cc1ccccc1)C(=O)N[C@@H](CCCNC(=N)N)C(=O)N[C@@H](Cc1c[nH]c2ccccc12)C(=O)NCC(=O)N[C@@H](CCCCNC(=O)CN1CCN(CC(=O)O)CCN(CC(=O)O)CCN(CC(=O)O)CC1)C(N)=O", "note": "[DOTA-NAPamide, Acetyl-Nle-Asp-His-D-Phe-Arg-Trp-Gly-Lys(DOTA)-NH2]", "values": [{"measurement": "pKi", "setting": "[1]; [5]", "result": 9.40}, {"measurement": "pKi", "setting": "[1]; whole B16/F1 cells, Fig 1A", "result": 9.43}, {"measurement": "tumor uptake", "setting": "tumor", "result": "7.56% to 9.43%"}]}, {"compound": "CCCC[C@H](NC(C)=O)C(=O)N[C@@H](CC(=O)O)C(=O)N[C@@H](Cc1c[nH]cn1)C(=O)N[C@H](Cc1ccccc1)C(=O)N[C@@H](CCCNC(=N)N)C(=O)N[C@@H](Cc1c[nH]c2ccccc12)C(=O)NCC(=O)N[C@@H](CCCCNC(=O)CN1CCN(CC(=O)O)CCN(CC(=O)O)CCN(CC(=O)O)CC1)C(N)=O", "note": "[68Ga-DOTA-NAPamide, metal not drawn]", "values": [{"measurement": "SUV", "setting": "[2]; 15 MBq, the other tumors (other three formulations), read-out: initial amount of radioactivity in the tumor (mean SUV)", "result": 0.43, "unit": "SUV"}, {"measurement": "SUV at 1 h", "setting": "[2]; 15 MBq, purified tracer", "result": 0.42, "unit": "SUV"}, {"measurement": "SUV at 1 h", "setting": "[2]; 15 MBq, unpurified tracer (standard procedure)", "result": 0.119, "unit": "SUV"}, {"measurement": "SUV", "setting": "[2]; animal with 1,000-fold excess of cold peptide mass, read-out: initial amount of radioactivity in the tumor (SUV)", "result": 0.63, "unit": "SUV"}, {"measurement": "SUV at 1 h", "setting": "[2]; purified + 1,000-fold excess of cold peptide", "result": 0.367, "unit": "SUV"}, {"measurement": "SUV at 1 h", "setting": "[2]; purified + 10,000-fold excess of unlabeled peptide", "result": 0.152, "unit": "SUV"}, {"measurement": "time to maximum tracer level in the tumors", "setting": "B16/F1 tumors", "result": "5 to 10", "unit": "min"}, {"measurement": "tissue uptake at 1 h", "setting": "[3]; B16/F1 tumor, HPLC-purified tracer, ~5 MBq, ± 95% CI, n = 7, read-out: tumor uptake", "result": 7, "unit": "%ID/g"}, {"measurement": "tissue uptake at 1 h", "setting": "[3]; B16/F1 tumor, non-purified tracer (standard procedure), ~5 MBq, ± 95% CI, n = 7, read-out: tumor uptake", "result": 0.78, "unit": "%ID/g"}, {"measurement": "tissue uptake at 1 h", "setting": "[3]; all other tissues (except tumor and kidneys), mostly below, read-out: uptake in all other tissues (except tumor and kidneys)", "result": "< 0.5", "unit": "%ID/g"}, {"measurement": "tissue to tissue ratio at 1 h", "setting": "[3]; tumor / all other organs investigated, HPLC-purified tracer, read-out: tumor-to-tissue ratios for all other organs investigated", "result": "> 15"}, {"measurement": "tissue to tissue ratio at 1 h", "setting": "[3]; tumor / kidney, HPLC-purified tracer, read-out: tumor-to-kidney ratio", "result": 2.33}, {"measurement": "decrease in tumor uptake vs purified tracer alone", "setting": "[4]; 500 pmol coinjected unlabeled peptide, 1 h", "result": "approximately 6 fold"}, {"measurement": "increase in tumor uptake, purified vs non-purified", "setting": "[4]; 1 h post injection", "result": "more than 8 fold"}, {"measurement": "tumor uptake", "setting": "[4]; HPLC-purified tracer, 1 h after i.v. injection, ~5 MBq, ± 95% CI, n = 7", "result": "7.0% ± 1.7%"}, {"measurement": "tumor uptake", "setting": "[4]; non-purified tracer (standard procedure), 1 h after i.v. injection, ~5 MBq, ± 95% CI, n = 7", "result": "0.78% ± 0.55%"}, {"measurement": "tumor uptake", "setting": "[4]; purified tracer + coinjection of 50 pmol (1,000-fold) cold DOTA-NAPamide, 1 h, Fig 4, n = 3, ± 95% CI", "result": "3.8% ± 3.6%"}, {"measurement": "tumor uptake", "setting": "[4]; purified tracer + coinjection of 500 pmol (10,000-fold) cold DOTA-NAPamide, 1 h, Fig 4, n = 3, ± 95% CI", "result": "1.1% ± 0.5%"}, {"measurement": "tumor uptake", "setting": "[4]; purified tracer alone, 5 MBq (~50 fmol), 1 h, Fig 4, n = 3, ± 95% CI", "result": "6.7% ± 1.9%"}, {"measurement": "kidney uptake", "setting": "[4]; purified tracer, 1 h after i.v. injection, ± 95% CI", "result": "3.0% ± 0.6%"}, {"measurement": "kidney uptake", "setting": "[4]; standard procedure (non-purified), 1 h after i.v. injection, ± 95% CI", "result": "4.6% ± 2.7%"}]}, {"compound": "Ga-labeled DOTA-NAPamide: DOTA-NAPamide complexed with non-radioactive Ga (XDHFRWGK; Linear alpha-MSH analogue Ac-Nle-Asp-His-D-Phe-Arg-Trp-Gly-Lys(DOTA)-NH2: N-terminal acetyl; X1 = norleucine; D-Phe4; Lys8 side chain conjugated to DOTA chelating non-radioactive Ga; C-terminal amide)", "values": [{"measurement": "pKi", "setting": "[1]; [5]", "result": 9.37}]}]}
